{
  "source": "patent US20150010932A1",
  "about": "“METHODS FOR ASSAYING PROTEIN-PROTEIN INTERACTIONS” (Salk Institute for Biological Studies, priority 2013, published 2015)",
  "key": {"Saos-2 cells": {"system": "Saos-2 cells", "test": "Lactate dehydrogenase (LDH) leakage assay, Saos-2 cells", "details": "25 μM and 10 μM, 6 hours, no serum", "from_the_text": "(§1) Accumulation of cytoplasmic lactate dehydrogenase (LDH) in the growth medium was used as a metric of cell membrane damage. LDH was detected by the CytoTox 96 Non-Radioactive Cytotoxicity Assay Kit (Promega). The 0.8% Triton X-100 treatment (Lysed) represents the maximum LDH leakage in this experiment and its reading was set to 100%. DMSO treatment served as the vehicle control and provided an indication of the presence of trace amounts of LDH in the serum and spontaneous LDH leakage from cells. The value obtained in the presence of DMSO was set to 0%. Data are shown as mean±SD (n=3). (B) Normal human fibroblasts (WS 1 cells) were treated exactly as in (A). Data are shown as mean±SD (n=3).S\n(§2) Saos-2 and WS 1 cells were seeded into 96-well plates (20,000 cells per well) and incubated at 37° C. […] LDH leakage into media was detected by the CytoTox 96 Non-Radioactive Cytotoxicity Assay Kit (Promega G1780) per manufacture's protocol. Assay background was evaluated by using the LDH reading from wells containing only media and PPI antagonists with or without 10% FBS and was subtracted from the values obtained in the presence of the PPI antagonists. Cells lysed by 0.8% Triton X-100 (provided by the Kit), a concentration sufficient to ensure lyse all cells but low enough not to interfere with the LDH assay, represents the maximum LDH leakage in this experiment and its reading is set to 100%. […]"}, "[1]": {"system": "Normal human fibroblasts (WS1 cells)", "test": "Lactate dehydrogenase (LDH) leakage assay, WS1 fibroblasts", "type": "cell-based", "details": "25 μM and 10 μM, 6 hours, no serum", "from_the_text": "as §1, §2"}, "p53-Mdm4 complexes [2]": {"biological_target": "T1, p53-Mdm4 complexes (Homo sapiens, UniProt O15151)", "T1 sequence (O15151 2-111)": "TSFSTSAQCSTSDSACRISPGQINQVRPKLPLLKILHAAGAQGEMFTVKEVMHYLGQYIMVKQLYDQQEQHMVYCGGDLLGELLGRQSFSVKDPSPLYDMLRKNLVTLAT", "test": "Real-time BiLC (ReBiL) assay in living cells, p53-Mdm4 reporter (Saos-2 134-354)"}, "p53-Mdm4 complexes [3]": {"biological_target": "T1, p53-Mdm4 complexes", "test": "BiLC assay using cell lysates, p53-Mdm4", "type": "biochemical", "parameters": "2-111) was cloned into pLi317; cLuc (C-terminal split firefly luciferase fragment, amino acids 398-550; expressed in transfected cells; host or cells: Saos-2 134-354 (single-copy RMCE integration, doxycycline-induced); the lysate assay text says Saos-2 or U2OS reporter cells", "details": "no FBS", "method": "(A) Cell lysates obtained from nLuc-p53 and cLuc-Mdm2 or nLuc-p53 and cLuc-Mdm4 ReBiL expressing reporter cells were incubated with the indicated PPI antagonists in the absence of FBS in a 384-well plate at room temperature for 10 minutes. Steady-Glo luciferase reagent was added, and luminescence was measured in a Tecan M200 luminometer at 26° C. Data are shown as mean±standard deviation (n=3) and normalized to the luminescent reading of DMSO (set to 100%). (B) The BiLC lysate assays were identical to (A) except for the inclusion of 10% FBS. Data are shown as mean±standard deviation (n=3) and normalized to the luminescent reading of DMSO (set to 100%).\n(§3) (A) Small molecule PPI antagonists were tested in p53-Mdm2 and p53-Mdm4 BiLC lysate assays without FBS. […] Data are shown as mean±standard deviation (n=3) and normalized to the luminescent reading of DMSO (set to 100%).\nThe 4× concentrated drugs diluted in DMEM/F12 media were pipetted into 384 well plates, 10 μl per well. Cells were washed with PBS-twice and lysed with PLB buffer (100 mM Tris-HCl pH 7.5; 0.5 mM EDTA; 150 mM NaCl; 0.1% Triton X-100, 1 mM sodium orthovanadate, 50 mM sodium fluoride, and Roche Complete Mini Protease Inhibitor Cocktail). […] The clear lysates were collected, diluted with DMEM (˜300 μl DMEM added into 100 μl lysates); 10 μl of diluted lysates were pipetted into each of the 384-wells, and the plates were incubated at room temperature for 10 minutes. 20 μl of luciferin reagents were added (Promega Bright-Glo E2620 or Steady-Glo E2520) into each well and luminescence was measured in a Tecan M200: integration time 0.5 seconds, 3˜5 minutes per cycle for total 30 minutes at 26° C."}, "p53-Mdm2 complexes [4]": {"biological_target": "T2, p53-Mdm2 complexes (Homo sapiens, UniProt Q00987)", "T2 construct": "cLuc-linker-FLAG-Mdm2-108 (generated); cLuc (C-terminal split firefly luciferase fragment, amino acids 398-550); expressed in transfected cells; host or cells: Saos-2 134-385 (single-copy RMCE integration, doxycycline-induced); the lysate assay text says Saos-2 or U2OS reporter cells", "T2 sequence (Q00987 2-108, one chain of several)": "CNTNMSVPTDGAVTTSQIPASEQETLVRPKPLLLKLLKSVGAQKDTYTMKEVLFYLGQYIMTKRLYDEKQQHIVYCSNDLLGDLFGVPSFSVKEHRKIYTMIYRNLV", "test": "BiLC assay using cell lysates, p53-Mdm2", "type": "biochemical", "details": "no FBS", "method": "FIGS. 5A and 5B show a set of graphs illustrating that the BiLC lysate assay can be used to determine if serum prevents SAH peptides from disrupting p53-Mdm2 or p53-Mdm4 complexes. (A) Cell lysates obtained from nLuc-p53 and cLuc-Mdm2 or nLuc-p53 and cLuc-Mdm4 ReBiL expressing reporter cells were incubated with the indicated PPI antagonists in the absence of FBS in a 384-well plate at room temperature for 10 minutes. Steady-Glo luciferase reagent was added, and luminescence was measured in a Tecan M200 luminometer at 26° C. Data are shown as mean±standard deviation (n=3) and normalized to the luminescent reading of DMSO (set to 100%). (B) The BiLC lysate assays were identical to (A) except for the inclusion of 10% FBS. Data are shown as mean±standard deviation (n=3) and normalized to the luminescent reading of DMSO (set to 100%).\nas §3\nThe 4× concentrated drugs diluted in DMEM/F12 media were pipetted into 384 well plates, 10 μl per well. […] 20 μl of luciferin reagents were added (Promega Bright-Glo E2620 or Steady-Glo E2520) into each well and luminescence was measured in a Tecan M200: integration time 0.5 seconds, 3˜5 minutes per cycle for total 30 minutes at 26° C."}, "p53-Mdm2 complexes [5]": {"biological_target": "T2, p53-Mdm2 complexes", "test": "Real-time BiLC (ReBiL) assay in living cells, p53-Mdm2 reporter (Saos-2 134-385)", "type": "cell-based", "method": "Data shown are mean±standard deviation (n=8). […] Actin was used as a loading control. […] Luminescent signals were measured every 10 minutes for 10 hours in a Tecan-M200 at 37° C. Data shown are mean±standard deviation (n=4). […] The nLuc-p53 and cLuc-Mdm2 fusion proteins were detected by anti-FLAG and anti-HA antibodies, respectively, and Actin was used as a loading control.\nAt Time=0, the cells were washed with Dulbecco's modified Eagle medium (DMEM) once, and treated with new media containing different PPI antagonists and with or without 10% fetal bovine serum (FBS).\nTwo strategies were used to avert cytotoxicity or cell cycle arrest that could be generated by wild type p53 activation. First, p53 null Saos-2 cells were used as the host cell line for ReBiL reporters.\nThe Saos-2 ReBiL reporter cells were washed, trypsinized and cell numbers were determined. […] Supernatants were discarded, ReBiL reporter cells were resuspended with DMEM/F12 (phenol-red free) and 20 μl cells were pipetted into each well. […]\n(a) The following protocol was used to evaluate small molecule PPI antagonists. […] The next day, the cells were washed, trypsinized, and cell numbers were determined. […] The plate was sealed with a MicroAmp Optical Adhesive Film, and luminescence was measured in a Tecan M200: integration time 2 seconds, 5˜10 minutes per cycle for total 6 hours at 37° C."}, "[6]": {"biological_target": "T3, Mdm2-Mdm4 N-terminal BiLC pair (Homo sapiens, UniProt O15151+Q00987)", "T3 construct": "linker-FLAG-Mdm2-108 (generated by; 2-111) was cloned into pLi223; cLuc (split firefly luciferase amino acids 398-550); nLuc (split firefly luciferase amino acids 1-416); expressed in transfected cells; host or cells: U2OS 134-544 (RMCE integration, doxycycline-induced)", "T3 sequence (Q00987 2-108, one chain of several)": "as above", "test": "Real-time BiLC assay in U2OS Mdm4-111/Mdm2-108 ReBiL reporter cells (U2OS 134-544)", "type": "cell-based", "details": "U2OS 134-544 cells, compound with doxycycline at Time=0, 24 hours", "from_the_text": "Data are shown as mean±standard deviation (n=6). […] Data are shown as mean±standard deviation (n=4)."}, "[7]": {"details": "living Saos-2 cells, doxycycline withdrawal, small molecule protocol"}},
  "note": "Entries after “also recorded” stand apart in the source; their conditions may differ. Bridges are numbered along the chain shown (N, C = ends). [ ]: non-standard residue; d: D form. Ahx = NCCCCCC(=O)O",
  "data": [
    {"molecule": "COc1ccc(C2=N[C@@H](c3ccc(Cl)cc3)[C@@H](c3ccc(Cl)cc3)N2C(=O)N2CCNC(=O)C2)c(OC(C)C)c1", "note": "[Nutlin-3a]", "values": [
      {"measurement": "LDH leakage (cell membrane damage), absence of serum", "setting": "Saos-2 cells", "value": "failed to induce membrane leakage"},
      {"measurement": "LDH leakage (cell membrane damage), absence of serum", "setting": "[1]", "value": "failed to induce membrane leakage"}
    ]},
    {"molecule": "CCOc1cc(/C=C2/C(=O)N(c3ccccc3)N=C2C)cc(Cl)c1OCC(=O)OC", "note": "[SJ-172550]", "values": [
      {"measurement": "p53-Mdm4 BiLC signal (newly synthesized complexes)", "setting": "p53-Mdm4 complexes [2]; living Saos-2 134-354 cells, compound added with doxycycline at Time=0, 10% FBS", "value": "No decrease in p53-Mdm4 luciferase signal was detected; also recorded: virtually no activity"},
      {"measurement": "p53-Mdm4 disruption in lysate BiLC assay, without FBS", "setting": "p53-Mdm4 complexes [3]", "value": "no activity; also recorded: poor p53/Mdm4 antagonist"},
      {"measurement": "p53-Mdm2 disruption in lysate BiLC assay, without FBS", "setting": "p53-Mdm2 complexes [4]", "value": "no activity"}
    ]},
    {"molecule": "MI-219", "values": [
      {"measurement": "Ability to interfere selectively with p53-Mdm2 interaction", "setting": "p53-Mdm2 complexes [5]; ReBiL strategy", "value": "interfere selectively with p53-Mdm2 interaction was confirmed"}
    ]},
    {"molecule": "RO-5963", "values": [
      {"measurement": "Disruption of pre-formed p53-Mdm4 BiLC complexes", "setting": "p53-Mdm4 complexes [2]; [7]", "value": "did not efficiently disrupt"},
      {"measurement": "Disruption of pre-formed p53-Mdm2 BiLC complexes", "setting": "p53-Mdm2 complexes [5]; [7]", "value": "did not efficiently disrupt"},
      {"measurement": "p53-Mdm4 disruption in lysate BiLC assay, without FBS", "setting": "p53-Mdm4 complexes [3]", "value": "no activity"},
      {"measurement": "p53-Mdm2 disruption in lysate BiLC assay, without FBS", "setting": "p53-Mdm2 complexes [4]", "value": "no activity"},
      {"measurement": "Mdm2-Mdm4 N-terminal domain association (luminescent signal)", "setting": "[6]", "value": "increased luminescent signals were detected"}
    ]},
    {"molecule": "cyclo(ACICRGNGYCG[Ahx]TSFAEYWNLLSGVCPKILQRCRRDSDCPG) (disulfide 2-26, 4-33, 10-39) [McoTi-1-PMI]", "values": [
      {"measurement": "LDH leakage (cell membrane damage), absence of serum", "setting": "Saos-2 cells", "value": "all except one (McoTi-1-PMI), damage cell membranes"}
    ]}
  ]
}
